Experimental data as given in paper PMC6130618, “Bioactivity-guided isolation of anti-proliferative compounds from endemic Centaurea kilaea” (Pharmaceutical Biology, 2016).
Values after ≈ are worked out from the molar mass of the structure shown. Read-outs that look alike come from different tables or passages of the source.

Columns and labels:
[1] = tested on: Hela (cervix adenocarcinoma); assay: MTT anti-proliferative assay, Hela; format: cell-based; conditions: Homo sapiens, 48 h, 0.5–50 μg/mL, mean ± SD, read-out: Cytotoxic activity IC50, Hela
Procedure: (§1) Anti-proliferative activity of compounds (0.5–50 μg/mL) against three human cancer cell lines were carried out by MTT test as specified in our previous study (Sen et al. [2015]). Compounds were tested for their cytotoxic activities. Cell viability and cytotoxic activity profile of the compounds were analyzed using the MTT assay (Mosman 1983; Woerdenbag et al. [1986]; Beekman et al. [1997]). MTT is cleaved to formazan by the ‘succinate-tetrazolium reductase’ system (EC 1.3.99.1) which belongs to the mitochondrial respiratory chain and is active only in viable cells. Different cell lines were used for the determination of cytotoxic activity [HeLa; (ATCC®, CCL- 2™), MCF-7 (ATCC®, HTB-22™), PC-3; (ATCC®, CRL-1435™)]. The cells were cultured with DMEM (Dulbecco’s Modified Eagle’s Medium) supplemented with 10% FBS (Foetal bovine serum), 1% L-glutamine and antibiotic solutions (penicillin–streptomycin–amphotericin).
(§2) In vitro cytotoxicity test was done by the method of modified Woerdenbag et al. ([1986]). The MTT metabolic assay was carried out with cells seeded at a density of 1 × 10^4 cells/well in 96-well flat-bottom cell culture plates with 100 μL of opti-MEM and 24–48 h incubation at 37 °C, 5% CO2. The following day, media was aspirated and the compounds were dissolved in DMSO and diluted with medium before they were added to the cell cultures at different concentrations. Cells were incubated for 48 h at 37 °C, 5% CO2. After the incubation period, 10 μL of the MTT labelling reagent [final concentration […] (Cell proliferation kit MTT, Roche, Germany)] was added to each well. The cultures were incubated for 4–12 h in a humidified atmosphere (e.g., 37 °C, 5% CO2) and 100 μL of the solubilization buffer was added into each well. The plate was allowed to stand overnight in the incubator in a humidified atmosphere (e.g., 37 °C, 5% CO2), the formazan precipitates were solubilized. Absorbance of the formazan product was measured spectrophotometrically at 550 and 690 nm.

[2] = MTT cytotoxicity assay, normal cell line L-929; format: cell-based; conditions: L-929 mouse fibroblast cells (normal cell line), L-929 normal mouse fibroblast, 0.5–50 μg/mL, mean ± SD, read-out: Cytotoxic activity IC50, L-929
Procedure: [Worded in the source for another cell line; this cell line is reported under the same test.] as §1, §2

[3] = tested on: MCF-7 (breast adenocarcinoma); assay: MTT anti-proliferative assay, MCF-7; format: cell-based; conditions: Homo sapiens, MCF7; MCF-7, MTT, 48 h, 0.5–50 μg/mL, mean ± SD; read-out: Cytotoxic activity IC50, MCF-7
Procedure: as §1, §2

[4] = tested on: PC-3 (prostate adenocarcinoma); assay: MTT anti-proliferative assay, PC-3; format: cell-based; conditions: Homo sapiens; PC-3, MCF-7 excluded; PC-3, MTT, 48 h, 0.5–50 μg/mL, mean ± SD; read-out: Cytotoxic activity IC50, PC-3
Procedure: as §1, §2

MCF-7 cell lines = tested on: MCF-7 cell lines; design: method as in Bruno et al. [2005]; Csapi et al. [2010]; conditions: ref Bruno et al. [2005], Csapi et al. [2010], cited from earlier work; for Activity on MCF-7 cell lines: same value converted
[5] = tested on: human malignant melanoma (SK-MEL) cells; design: method as in Erel et al. ([2011]); conditions: ref Erel et al. ([2011]); cited from earlier work
[6] = tested on: human ductal carcinoma (BT-549) cells; design: method as in Erel et al. ([2011]); conditions: ref Erel et al. ([2011]); cited from earlier work

| SMILES | IC50 [1] [µg/mL] | IC50 at 48 h [2] [µg/mL] | IC50 [3] [µg/mL] | IC50 [4] [µg/mL] | Activity on MCF-7 cell lines (MCF-7 cell lines; another study) [µg/mL] | IC50 (MCF-7 cell lines; another study) [µM] | Activity on MCF-7 cell lines (MCF-7 cell lines; previous study) [µg/mL] | IC50 (MCF-7 cell lines; previous study) [µM] | Cytotoxic effect, SK-MEL [5] | Cytotoxic effect, BT-549 [6] |
| --- | --- | --- | --- | --- | --- | --- | --- | --- | --- | --- |
| CC1(C)CC[C@]2(C(=O)O)CC[C@]3(C)C(=CC[C@@H]4[C@@]5(C)CC[C@H](O)C(C)(C)[C@@H]5CC[C@]43C)[C@@H]2C1 [Oleanolic acid] | > 50 | > 50 | > 50 | 45.38 ± 0.42 (≈ 99.4 µM) |  |  |  |  |  |  |
| C=C1CC[C@]2(C)CC[C@]3(C)[C@H](CC[C@@H]4[C@@]5(C)CC[C@H](O)C(C)(C)[C@@H]5CC[C@]43C)[C@H]2[C@@H]1C [Taraxasterol] | > 50 | > 50 | > 50 | > 50 |  |  |  |  |  |  |
| COc1ccc(-c2cc(=O)c3c(O)c(OC)c(O)cc3o2)cc1 [Pectolinarigenin] | > 50 | > 50 | 35.5 ± 2.7 (≈ 113 µM) | > 50 |  |  |  |  |  |  |
| COc1ccc(-c2cc(=O)c3c(O)c(OC)c(OC)cc3o2)cc1 [Salvigenin] | > 50 | > 50 | > 50 | > 50 |  |  |  |  |  |  |
| COc1ccc(-c2cc(=O)c3c(O)c(OC)c(OC)cc3o2)cc1OC [3′-O-Methyl eupatorin] | > 50 | > 50 | > 50 | > 50 |  |  |  |  |  |  |
| COc1cc2oc(-c3ccc(O)cc3)cc(=O)c2c(O)c1OC [Cirsimaritin] | > 50 | > 50 | > 50 | 4.3 ± 1.55 (≈ 13.7 µM) |  |  |  |  |  |  |
| O=c1cc(-c2ccc(O)cc2)oc2cc(O)cc(O)c12 [Apigenin] | > 50 | > 50 | > 50 | 44.13 ± 0.33 (≈ 163 µM) |  |  |  |  |  |  |
| C=C[C@]1(C)C[C@H](O)[C@H]2C(=C)C(=O)O[C@@H]2[C@H]1C(=C)CO [Dehydromelitensin] | > 50 | > 50 | 28.9 ± 0.95 (≈ 110 µM) | 25 ± 0.44 (≈ 94.6 µM) |  |  |  |  |  |  |
| C=C1C(=O)O[C@@H]2/C=C(\CO)CC/C=C(\C)C[C@H](OC(=O)C(=C)[C@@H](O)CO)[C@@H]12 [Cnicin] | > 50 | > 50 | 3.25 ± 0.03 (≈ 8.59 µM) | 31.5 ± 0.71 (≈ 83.3 µM) | 6.37 | 16.8 | 1.59 | 4.2 | cytotoxic effect | cytotoxic effect |
| COc1cc(-c2cc(=O)c3c(O)c(OC)c(O)cc3o2)ccc1O [Jaceosidin] | > 50 | > 50 | > 50 | > 50 |  |  |  |  |  |  |
| COc1ccc(-c2cc(=O)c3c(O)c(OC)c(OC)cc3o2)cc1O [Eupatorin] | > 50 | > 50 | > 50 | 35.69 ± 0.3 (≈ 104 µM) |  |  |  |  |  |  |
